From the NIST ThermoML archive (doi:10.1016/j.jct.2015.06.005)
± gives the expanded uncertainty stated by the source.

How the values were obtained:
[1] = refractive index (Na D-line) (dimensionless); xn = mol fraction of the nth substance listed; conditions: 100 kPa, Liquid, Standard Abbe refractometry, x1 = 1
[2] = xn = mol fraction of the nth substance listed; conditions: 100 kPa, Liquid, x1 = 1; for speed of sound: Frequency=3 MHz, Sing-around technique in a fixed-path interferometer; for mass density: Vibrating tube method
[3] = 100 kPa, Liquid; for speed of sound: Frequency=3 MHz, Sing-around technique in a fixed-path interferometer; for mass density: Vibrating tube method
[4] = refractive index (Na D-line) (dimensionless); conditions: 100 kPa, Liquid, Standard Abbe refractometry

CCCCn1cc[n+](C)c1.F[B-](F)(F)F [1-butyl-3-methylimidazolium tetrafluoroborate] + CCCCCCCCN1CCCC1=O
refractive index ([1]; 298.15 K): 1.42058 ± 0.00087
refractive index ([1]; 303.15 K): 1.41913 ± 0.00087
refractive index ([1]; 308.15 K): 1.41764 ± 0.00087
refractive index ([1]; 313.15 K): 1.41621 ± 0.00087
refractive index ([1]; 318.15 K): 1.41472 ± 0.00087
refractive index ([1]; 323.15 K): 1.4133 ± 0.00087
speed of sound ([2]; 298.15 K): 1565.1 ± 6.1 m/s
mass density ([2]; 298.15 K): 1198.78 ± 1.1 kg/m3
speed of sound ([2]; 303.15 K): 1553.2 ± 6.1 m/s
mass density ([2]; 303.15 K): 1195.18 ± 1.1 kg/m3
speed of sound ([2]; 308.15 K): 1541.3 ± 6.1 m/s
mass density ([2]; 308.15 K): 1191.6 ± 1.1 kg/m3
speed of sound ([2]; 313.15 K): 1529.7 ± 6.1 m/s
mass density ([2]; 313.15 K): 1188.04 ± 1.1 kg/m3
speed of sound ([2]; 318.15 K): 1518.2 ± 6.1 m/s
mass density ([2]; 318.15 K): 1184.5 ± 1.1 kg/m3
speed of sound ([2]; 323.15 K): 1506.8 ± 6.1 m/s
mass density ([2]; 323.15 K): 1180.98 ± 1.1 kg/m3

CCCCCCCCN1CCCC1=O [N-octyl-2-pyrrolidone]
speed of sound ([3]; 298.15 K): 1450.2 ± 6.1 m/s
mass density ([3]; 298.15 K): 918.45 ± 1 kg/m3
speed of sound ([3]; 303.15 K): 1432.6 ± 6.1 m/s
mass density ([3]; 303.15 K): 914.8 ± 1 kg/m3
speed of sound ([3]; 308.15 K): 1415.3 ± 6.1 m/s
mass density ([3]; 308.15 K): 911.14 ± 1 kg/m3
speed of sound ([3]; 313.15 K): 1398 ± 6.1 m/s
mass density ([3]; 313.15 K): 907.49 ± 1 kg/m3
speed of sound ([3]; 318.15 K): 1380.9 ± 6.1 m/s
mass density ([3]; 318.15 K): 903.83 ± 1 kg/m3
speed of sound ([3]; 323.15 K): 1364 ± 6.1 m/s
mass density ([3]; 323.15 K): 900.17 ± 1 kg/m3
refractive index ([4]; 298.15 K): 1.46346 ± 0.00086
refractive index ([4]; 303.15 K): 1.46152 ± 0.00086
refractive index ([4]; 308.15 K): 1.45955 ± 0.00086
refractive index ([4]; 313.15 K): 1.45761 ± 0.00086
refractive index ([4]; 318.15 K): 1.45564 ± 0.00086
refractive index ([4]; 323.15 K): 1.45367 ± 0.00086
